Data from publication PMC8784342, “Investigation of sugar binding kinetics of the E. coli sugar/H^+ symporter XylE using solid-supported membrane-based electrophysiology” (The Journal of Biological Chemistry, 2021).
Marks after values point to notes of the source that are not given here.

Experiments:
wt FucP [1] = target: T1, wt FucP (Escherichia coli, UniProt P11551); assay: SSM-based electrophysiology, proteoliposomes with wt FucP; assay type: biochemical
T1 construct: made in house; host or cells: E. coli BL21 DE3
T1 sequence (P11551 1-438): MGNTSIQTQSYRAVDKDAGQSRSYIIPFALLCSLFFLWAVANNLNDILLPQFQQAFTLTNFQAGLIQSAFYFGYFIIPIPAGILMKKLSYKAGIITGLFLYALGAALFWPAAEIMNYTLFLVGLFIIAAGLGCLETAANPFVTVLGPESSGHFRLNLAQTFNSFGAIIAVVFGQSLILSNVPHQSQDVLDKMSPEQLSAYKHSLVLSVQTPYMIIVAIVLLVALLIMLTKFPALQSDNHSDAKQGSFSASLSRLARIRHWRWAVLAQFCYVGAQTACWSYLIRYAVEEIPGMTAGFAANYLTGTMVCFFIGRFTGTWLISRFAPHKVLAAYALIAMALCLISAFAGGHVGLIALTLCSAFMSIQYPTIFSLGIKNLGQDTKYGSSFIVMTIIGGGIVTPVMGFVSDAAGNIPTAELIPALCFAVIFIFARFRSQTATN
Method: (§1) Reconstitution of purified proteins (2–20 mg/ml) was carried out with E. coli phospholipids (Avanti Polar Lipids, E. coli polar lipid extract). Preformed liposomes (0.2–2 ml, 10 mg/ml) were dissolved in 1% (w/v) n-octyl-β-D-glucoside, and the protein suspension was mixed on ice to a concentration of 0.2 mg protein/mg lipid (LPR 5).
(§2) Wt XylE, wt FucP, and the mutant proteins were reconstituted using overnight incubation in 400 mg/ml BioBeads (SM-2 Adsorbent Media, Bio-Rad) at 4 °C. After reconstitution, the samples were diluted to 2.5 mg/ml lipid concentration, frozen in liquid nitrogen, and stored at −80 °C. For wt LacY and mutant proteins, this procedure was not successful. We, therefore, applied the previously established n-octyl-β-D-glucoside dilution method (1:100) ([69]).
(§3) SSM measurements were performed as described ([20], [23]). After thawing the sample and sonication in a water bath, 30 μl of proteoliposomes (2.5 mg/ml lipid at LPR 5) was allowed to adsorb for 1 to 2 h to an octadecanethiol/phosphatidylcholine hybrid bilayer on a gold surface (the sensor).
(§4) For measurements, a single solution exchange configuration ([23]) was employed that consisted in three phases of 0.5 s duration each: Flow of nonactivating solution (NA), activating solution (A), and nonactivating solution (NA). Only the activating solution contained the sugar. When pH dependence is determined, pH of NA and A solutions during one experiment are kept constant. Between experiments using different pH values, the sensor was incubated at the new pH for 3 min to equilibrate the intraliposomal pH.
(§5) Instruments with different time resolution were used as required. […] Currents were recorded throughout the entire time and amplified with a current amplifier set to a gain of […] and a rise time of 10 ms (low time-resolution set up) or 3 ms (high time-resolution set up).
(§6) All NA solutions were buffered in 100 mM KPi at a given pH value. NA solutions used with LacY contained 1 mM DTT in addition. A solutions were made from NA solutions by adding the respective sugar at a given concentration to induce the symport reaction. Sugar concentration jumps initiated sugar-proton symport, and charge transfer was measured by capacitive coupling. Therefore, only transient currents were recorded.
(§7) Each dataset represented with error bars was generated by performing the same experiment on multiple sensors (n ≥ 3). Error bars represent standard deviations of the average value. When peak currents are averaged across sensors, datasets are normalized before averaging. When the protein catalyzes transport and PSS currents are negligible, the peak current of the transient represents a good approximation of the current generated by the steady-state symport activity of the transporter. In most cases, peak currents have been used to derive kinetic and thermodynamic parameters according to the equations given in Figure 2 (KM, Imax ∼ Vmax, Hill coefficient n), Figure 4 (KD and rate constants for sugar binding kon and release koff), and Figure 6 (pKa for proton binding and pKb for proton release). Reconstruction of transporter currents for analysis of biphasic currents has been performed as described previously ([70]). This is required when transport and PSS currents are observed at the same time.

wt FucP [2] = target: T1, wt FucP; conditions: pH 7.6, main substrate, cited from earlier work
FucP = tested on: FucP; design: method as in PMID 2829831, PMID 8384447; conditions: radioactively labeled sugars; read-out: KM, literature; cited from earlier work
D46N FucP = target: T2, D46N FucP (Escherichia coli, UniProt P11551, D46N); assay: SSM-based electrophysiology, transport-deficient mutant D46N FucP (PSS currents); assay type: biochemical
T2 construct: made in house; host or cells: E. coli BL21 DE3
T2 sequence (P11551 whole entry D46N): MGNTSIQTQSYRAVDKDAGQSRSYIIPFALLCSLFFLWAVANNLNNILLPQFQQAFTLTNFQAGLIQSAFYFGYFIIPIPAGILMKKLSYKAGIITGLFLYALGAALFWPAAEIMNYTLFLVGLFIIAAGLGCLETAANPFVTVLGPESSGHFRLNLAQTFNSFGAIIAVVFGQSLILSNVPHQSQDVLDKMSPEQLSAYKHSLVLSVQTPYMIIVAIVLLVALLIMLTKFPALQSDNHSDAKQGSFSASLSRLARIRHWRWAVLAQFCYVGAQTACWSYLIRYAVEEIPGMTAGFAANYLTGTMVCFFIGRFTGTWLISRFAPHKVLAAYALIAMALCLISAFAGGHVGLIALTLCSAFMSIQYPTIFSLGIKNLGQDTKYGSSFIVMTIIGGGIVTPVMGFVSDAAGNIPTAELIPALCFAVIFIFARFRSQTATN
Method: as §1, §2, §3, §4, §5, §6, §7

wt LacY [3] = target: T3, wt LacY (Escherichia coli, UniProt P02920); assay: SSM-based electrophysiology, proteoliposomes with wt LacY; assay type: biochemical
T3 construct: made in house; host or cells: E. coli XL1-Blue
T3 sequence (P02920 1-417): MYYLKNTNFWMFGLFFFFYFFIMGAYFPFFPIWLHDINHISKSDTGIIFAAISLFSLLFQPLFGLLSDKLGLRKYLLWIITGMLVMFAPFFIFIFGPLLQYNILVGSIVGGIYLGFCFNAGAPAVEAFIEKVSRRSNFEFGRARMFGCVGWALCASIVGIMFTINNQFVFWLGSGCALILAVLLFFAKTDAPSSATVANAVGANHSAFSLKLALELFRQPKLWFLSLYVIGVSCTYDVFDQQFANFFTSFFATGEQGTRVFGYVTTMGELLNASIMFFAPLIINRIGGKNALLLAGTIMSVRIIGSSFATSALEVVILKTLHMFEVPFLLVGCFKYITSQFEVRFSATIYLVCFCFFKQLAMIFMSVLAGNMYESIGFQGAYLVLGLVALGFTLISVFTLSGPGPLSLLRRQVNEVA
Method: as §1, §2, §3, §4, §5, §6, §7

wt LacY [4] = target: T3, wt LacY; conditions: pH 7.6, main substrate, cited from earlier work
E325A LacY = target: T4, E325A LacY (Escherichia coli, UniProt P02920, E325A); assay: SSM-based electrophysiology, transport-deficient mutant E325A LacY (PSS currents, electrogenic binding); assay type: biochemical; conditions: for Q (pC) Mut, transferred charge: pH 7.6; for Q (pC) Mut, transferred charge / kobs (s^−1) mut: saturating substrate (100 mM D-lactose, lactulose; 5 mM TDG); for kobs (s^−1) mut: kobs = 1/τ, limited by time resolution
T4 construct: made in house; host or cells: E. coli XL1-Blue
T4 sequence (P02920 whole entry E325A): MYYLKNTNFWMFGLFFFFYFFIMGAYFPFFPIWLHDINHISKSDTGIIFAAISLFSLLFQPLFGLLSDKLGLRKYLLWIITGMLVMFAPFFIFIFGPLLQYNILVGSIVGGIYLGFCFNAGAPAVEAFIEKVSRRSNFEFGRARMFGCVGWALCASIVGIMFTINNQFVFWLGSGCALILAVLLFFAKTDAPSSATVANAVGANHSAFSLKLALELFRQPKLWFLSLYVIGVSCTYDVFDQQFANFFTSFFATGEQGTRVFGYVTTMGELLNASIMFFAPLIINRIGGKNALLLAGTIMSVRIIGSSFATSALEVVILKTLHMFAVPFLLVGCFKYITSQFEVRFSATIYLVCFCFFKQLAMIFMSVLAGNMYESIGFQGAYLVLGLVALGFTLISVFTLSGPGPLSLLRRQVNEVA
Method: as §1, §2, §3, §4, §5, §6, §7

single-Cys LacY = target: single-Cys LacY; design: method as in PMID 7918438, PMID 15304639; conditions: read-out: KD, protection against labeling; cited from earlier work
LacY = conditions: cited from earlier work
C154G/V331C LacY = tested on: C154G/V331C LacY; design: method as in PMID 19383792, PMID 17176050; conditions: stopped flow; cited from earlier work
[5] = read-out: KM (mM) Michaelis–Menten equation

In the case of `OC[C@@H]1OC(O)[C@@H](O)[C@H](O)[C@@H]1O` (stereo partly drawn) [L-galactose], the “Imax in percent of Imax of the main substrate (L-fucose)” value (wt FucP [1]; pH 7.6) is reported as 123 ± 8%.

For L-fucose, the “KM lower than KM obtained for minor substrates” value (wt FucP [1]; pH 7.6) is listed as 7–12 fold, the “Q (pC) wt, PSS transferred charge” value (wt FucP [1]; pH 10.5, 30 mM substrate, rough estimation) is listed as “∼0.5 ^b (pH 10.5) pC” and the Imax (wt FucP [2]) is listed as 0.5 ± 0.2 nA. The Km (wt FucP [2]; [5]) was 0.9 ± 0.1 mM, the Km (FucP) was 20 to 40 µM and the “induction of PSS currents” value (D46N FucP) was “induces PSS currents”. The “kobs (s^−1) mut” value (D46N FucP; 30 mM substrate, low time-resolution set up) was 100 ± 20 ^a s^−1 and the “Q (pC) Mut, transferred charge” value (D46N FucP; pH 10.5, 30 mM substrate) was −1.2 ± 0.6 (pH 10.5) pC.

In the case of `OC[C@H]1O[C@@H](O[C@H]2[C@H](O)[C@@H](O)[C@H](O)O[C@@H]2CO)[C@H](O)[C@@H](O)[C@H]1O` [D-lactose], the “Q (pC) wt, PSS transferred charge” value (wt LacY [3]; pH 5.0, 100 mM substrate) is given as 2.6 ± 0.6 (pH 5.0) pC, the Imax (wt LacY [4]) is given as 0.7 ± 0.2 nA and the Km (wt LacY [4]; [5]) is given as 5.3 ± 0.5 mM. The Kd (E325A LacY) was 20 ± 3 mM, the “Q (pC) Mut, transferred charge” value (E325A LacY) was 3.1 ± 1.8 (pH 7.6) pC and the “kobs (s^−1) mut” value (E325A LacY) was 260 ± 60 s⁻¹. The Kd (single-Cys LacY) was 1 to 10 mM, the transport rate (LacY) was 30 to 50 s⁻¹ and the Km (LacY; radioactively labeled sugars, read-out: KM, literature) was 500 to 3000 µM.

In the case of `O=[N+]([O-])c1ccc(OC2O[C@H](CO)[C@H](O)[C@H](O)[C@H]2O)cc1` (stereo partly drawn) [p-nitrophenyl-D-galactopyranoside], the “rate constant of the binding reaction” value (C154G/V331C LacY) is listed as 10^6 M^−1 s^−1 and the “rate constant of the following conformational changes” value (C154G/V331C LacY) is listed as 250 s⁻¹.

For `OC[C@H]1O[C@@H](O[C@@H]2[C@@H](CO)OC(O)(CO)[C@H]2O)[C@H](O)[C@@H](O)[C@H]1O` (mixture of isomers) [Lactulose], the EC50 (wt LacY [3]; EC50,1, double Michaelis–Menten fit, pH 7.6, peak currents) was 0.88 ± 0.1 mM, the EC50 (wt LacY [3]; EC50,2, double Michaelis–Menten fit, pH 7.6, peak currents) was 90 ± 42 mM and the “Imax in percent of Imax of the main substrate (D-lactose)” value (wt LacY [3]; pH 7.6) was 71 ± 8%. For the same molecule, the “n (Hill coefficient)” value (wt LacY [3]; pH 7.6, peak currents, Hill equation) was 0.55 ± 0.08, the Kd (E325A LacY) was 5 ± 0.6 mM and the “Q (pC) Mut, transferred charge” value (E325A LacY) was 2.2 ± 0.5 (pH 7.6) pC. For the same molecule, the “kobs (s^−1) mut” value (E325A LacY) was 380 ± 40 s⁻¹.

With `O[C@@H]1[C@@H](O)[C@@H](O)CO[C@H]1O` [L-arabinose] the “induction of PSS currents” value (D46N FucP) was “do not generate PSS currents”.
